Test results from patent US20040002479A1, “Peptide analogues and uses thereof” (priority 2002, published 2004).

Test: Hydroxyapatite assay (hydroxyapatite adsorption chromatography, bone-targeting potential)
Format: physicochemical
Details: corrected K=(retention time-void time)/void; TSK-Gel HA 1000 HPLC column; linear gradient 10 mM to 500 mM sodium phosphate, 0.15 N NaCl, pH 6.8
Protocol: Hydroxyapatite is the principal mineral component of bone. Hydroxyapatite adsorption chromatography is used as an assay to evaluate the bone-targeting potential of both individual bone-targeting moieties (“monomers”) and of pharmaceuticals incorporating bone-targeting groups.
Method: The rentention time of a test compound is measured using a linear gradient from 10 mM sodium phosphate, 0.15 N NaCl, pH=6.8 to 500 mM sodium phosphate, 0.15 N NaCl, […] on a TSK-Gel HA 1000 high pressure liquid chromatography column (7.5 mm×75 mm). The rentention time of the compound is expressed in terms of K=(retention time-void time)/void. This K value is corrected using two reference compounds to correct from inter-column and inter-system variation to obtain a K′ value.
Reference Compounds: K′ values were determined for known bone targeted compounds, the bisphosphonate, alendronate and tetracycline.

- K′ value: 3.7
SMILES: NCCCC(O)(P(=O)(O)O)P(=O)(O)O [Alendronate, alendronate]
